Tests used:
[1] = tested on: cytochrome b5 and/or cytochrome b5 reductase; test: Inhibition of the electron transport partners, concluded from the non-inhibited mARC2 conversion; assay type: biochemical, human; conditions: concluded from the non-inhibited conversion for mARC2
Method: (§1) The compounds N-hydroxyurethane (R1═H, R2═CH2CH3) and ethyl-N-(3-chlorophenyl) -hydroxycarbamate (R1═3-chlorophenyl, R2═CH2CH3) are used as examples of active compounds. FIGS. 1, 3 and 4 show the absorbance at 340 nm in dependence on the time for an incubation with the three-component system mARC1 and mARC2, respectively, cytochrome b5 and cytochrome b5 reductase, which catalyze the conversion of the model substrate benzamidoxime (BAO) to benzamidine in the presence of the cosubstrate NADH (5). The decrease in the concentration of NADH due to its absorption maximum at 340 nm is thereby measured. From the measurement results, which are shown in the bar graph of FIG. 4, the inhibition of the conversion of benzamidoxime to benzamidine is evident by the lower consumption of NADH. NADH represents the required cosubstrate for the conversion. […] The down-regulation is only observed for mARC1 and not for mARC2 (FIG. 2).
(§2) 105 μl MES buffer (20 mM, pH 6.0) was placed in a micro-UV cuvette. […] This batch was then set as a blank sample and the absorbance was zeroed. […] Herein, the absorbance spectrum between 300 nm and 400 nm was recorded every 30 s for a period of 10 min (spectrophotometer Cary® 50 Bio with Walter peltier system PCB 150, Agilent). […] The conversion rates of BAO with and without inhibitor were compared based on the absorbance change at 340 nm to determine the degree of inhibition. […]

human mARC1 = biological target: T1, human mARC1 (Homo sapiens, UniProt Q5VT66); test: mARC1 three-component system (mARC1, cytochrome b5, cytochrome b5 reductase): conversion of benzamidoxime to benzamidine, NADH consumption at 340 nm / HPLC of benzamidine; assay type: biochemical; conditions: recombinant mARC1 + CYB5B + CYB5R3, NADH, substrate BAO, 37° C., MES pH 6.0; FIGS. 1-4 (N-hydroxyurethane and urethane 1 mM in FIGS. 1, 3)
T1 construct: made in house; host or cells: Escherichia coli
T1 sequence (Q5VT66 53-337 limits assumed): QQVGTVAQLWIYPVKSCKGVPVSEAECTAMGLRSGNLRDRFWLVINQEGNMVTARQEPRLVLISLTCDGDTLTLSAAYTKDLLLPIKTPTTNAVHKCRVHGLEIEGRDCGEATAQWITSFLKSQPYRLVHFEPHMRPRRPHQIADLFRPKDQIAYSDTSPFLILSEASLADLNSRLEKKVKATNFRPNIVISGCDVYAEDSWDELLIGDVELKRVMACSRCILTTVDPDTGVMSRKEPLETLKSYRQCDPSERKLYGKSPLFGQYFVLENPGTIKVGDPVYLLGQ
Method: as §1, §2

human mARC2 = biological target: T2, human mARC2 (Homo sapiens, UniProt Q969Z3); test: mARC2 three-component system (mARC2, cytochrome b5, cytochrome b5 reductase): conversion of benzamidoxime to benzamidine, NADH consumption at 340 nm / HPLC of benzamidine; assay type: biochemical; conditions: recombinant mARC2 + CYB5B + CYB5R3, NADH, substrate BAO; FIG. 2
T2 construct: made in house; host or cells: Escherichia coli
T2 sequence (Q969Z3 36-335): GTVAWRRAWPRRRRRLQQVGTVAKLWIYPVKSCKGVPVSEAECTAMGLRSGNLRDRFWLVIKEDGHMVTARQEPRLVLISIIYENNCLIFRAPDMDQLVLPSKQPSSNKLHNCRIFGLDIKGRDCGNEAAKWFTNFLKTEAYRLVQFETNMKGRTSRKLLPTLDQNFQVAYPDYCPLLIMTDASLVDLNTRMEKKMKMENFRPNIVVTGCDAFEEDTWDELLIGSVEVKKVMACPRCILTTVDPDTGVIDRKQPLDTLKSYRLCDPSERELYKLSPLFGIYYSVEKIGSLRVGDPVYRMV
Method: as §1, §2

inhibition of cytochrome b5 and/or cytochrome b5 reductase [1]	inhibition of the conversion of benzamidoxime to benzamidine by mARC1 (human mARC1)	down-regulation of the conversion of benzamidoxime to benzamidine by mARC2 (human mARC2)	SMILES
are not inhibited	inhibition occurs	not for mARC2	CCOC(=O)NO [N-hydroxyurethane]
–	inhibition occurs	–	CCOC(=O)N(O)c1cccc(Cl)c1 [ethyl-N-(3-chlorophenyl)-hydroxycarbamate]

— patent US20240207215A1, “MARC1 INHIBITORS FOR TREATMENT OF LIPID METABOLISM DISORDERS” (priority 2020, published 2024)
